In general, GI50 refers to the concentration at which growth is held to half of that of the control. As a reminder, the LD50 is the dose expected to kill half of the subjects tested. A low value points to greater toxicity.

The subject of data set [1] is ERK1,2 phosphorylation. The data set is described as follows: ERK1/2 phosphorylation ELISA, OVCAR-3 cells. It is filed as cell-based, human. The following applies: for Vmax ± SE, pERK 1/2 inhibition: Michaelis Menten model; for IC50: Homo sapiens, read-out: IC50, pERK 1/2 inhibition. In general terms: An ELISA detects its analyte on a solid surface through an enzyme-linked reagent.

Data set [2] deals with AKT1,2 phosphorylation. The data set is described as follows: AKT phosphorylation ELISA, SK-OV-3 cells. In kind it is cell-based, human. As to conditions: for Vmax ± SE, pAKT 1/2 inhibition: Michaelis Menten model; for IC50: Homo sapiens, read-out: IC50, pAKT 1/2 inhibition.
Data set [3] concerns UWB1.289 cancer cell line. The experiment in a line: cells. As to conditions: Homo sapiens, UWB1289, 48 h; for GI50: read-out: GI50 (50% Growth Inhibition); for IC50: read-out: IC50 (cytotoxic effect).
A short description of data set [4]: in vivo. As to conditions: both, CB17 SCID, mouse, ip.

Where two headings read alike, the source gives them in different places.

Consider `C[C@]12CC[C@H]3[C@@H](CCC4=CC(=O)NCC[C@@]43C)[C@@H]1CC[C@@H]2OC(=O)CCOc1ccc(N(CCCl)CCCl)cc1` [ENGA-L06E, 5a,7a-dimethyl-2-oxo-2,3,4,5,5a,5b,6,7,7a,8,9,10,10a,10b,11,12-hexa decahydrocyclopenta [5, 6] naphtho [1,2-d] azepin-8-yl 3-(4-(bis(2-chloroethyl)amino)phenoxy) propanoate], for which the “Vmax ± SE, pERK 1/2 inhibition” value amounted to 53.57 ± 3.41 in data set [1] (15 min), 80.62 ± 1.98 in data set [1] (30 min) and 93.91 ± 3.61 in data set [1] (60 min). For the same molecule, the IC50 in data set [1] (0.25 h, 15 min) turned out to be 49 µM; in data set [1] (0.5 h, 30 min), 14.5 µM; in data set [1] (1 h, 60 min) it was 12.8 µM; in data set [2] (0.25 h, 15 min) it was 25.9 µM; in data set [2] (0.5 h, 30 min) it was 22.3 µM; in data set [2] (1 h, 60 min) it was 21.4 µM. Moreover, in data set [3], the IC50 amounted to 20 ± 1.1 µM. Besides, the “Vmax ± SE, pAKT 1/2 inhibition” value in data set [2] (15 min) is listed as 79.23 ± 0.39; in data set [2] (30 min) it was 86.10 ± 1.13; in data set [2] (60 min) it was 87.27 ± 0.59. Moreover, in data set [3], the 50% growth inhibitory concentration (GI50) worked out at 3.5 ± 0.4 µM.
`C[C@]12CC[C@@H]3c4ccc(OC(=O)CCOc5ccc(N(CCCl)CCCl)cc5)cc4CC[C@H]3[C@@H]1CCC(=O)N2` [ENGA-L08E, 12a-methyl-2-oxo-1,2,3,4,4a,4b,5,6,10b,11,12,12a-dodecahydronaphtho[2,1-f]quinolin-8-yl 3-(4-(bis (2-chloroethyl)amino)phenoxy) propanoate]: the “Vmax ± SE, pERK 1/2 inhibition” value was found to be 56.77 ± 0.49 in data set [1] (15 min), 61.29 ± 1.88 in data set [1] (30 min) and 63.79 ± 1.33 in data set [1] (60 min). Moreover, the IC50 came out at 48.9 µM in data set [1] (0.25 h, 15 min); 17.8 µM in data set [1] (0.5 h, 30 min); 9.51 µM in data set [1] (1 h, 60 min); 29.6 µM in data set [2] (0.25 h, 15 min); 24.9 µM in data set [2] (0.5 h, 30 min); 21.8 µM in data set [2] (1 h, 60 min). The IC50 in data set [3] turned out to be 45 ± 3.3 µM. The “Vmax ± SE, pAKT 1/2 inhibition” value was 79.22 ± 0.89 in data set [2] (15 min), 81.78 ± 2.53 in data set [2] (30 min) and 82.20 ± 1.68 in data set [2] (60 min). In addition, the 50% lethal dose (LD50) in data set [4] is 95 mg/kg. Besides, the concentration for 50% growth inhibition (GI50) in data set [3] came out at 8 ± 0.9 µM.

These data come from article PMC7281072 (Cancers, 2020).
